{
  "source": "patent US12612343B2",
  "about": "“PSMA binder and use thereof” (priority 2020, dated 2026)",
  "key": {"[1]": {"molecular_target": "PSMA protein (Homo sapiens, UniProt Q04609)", "sequence (Q04609 whole entry)": "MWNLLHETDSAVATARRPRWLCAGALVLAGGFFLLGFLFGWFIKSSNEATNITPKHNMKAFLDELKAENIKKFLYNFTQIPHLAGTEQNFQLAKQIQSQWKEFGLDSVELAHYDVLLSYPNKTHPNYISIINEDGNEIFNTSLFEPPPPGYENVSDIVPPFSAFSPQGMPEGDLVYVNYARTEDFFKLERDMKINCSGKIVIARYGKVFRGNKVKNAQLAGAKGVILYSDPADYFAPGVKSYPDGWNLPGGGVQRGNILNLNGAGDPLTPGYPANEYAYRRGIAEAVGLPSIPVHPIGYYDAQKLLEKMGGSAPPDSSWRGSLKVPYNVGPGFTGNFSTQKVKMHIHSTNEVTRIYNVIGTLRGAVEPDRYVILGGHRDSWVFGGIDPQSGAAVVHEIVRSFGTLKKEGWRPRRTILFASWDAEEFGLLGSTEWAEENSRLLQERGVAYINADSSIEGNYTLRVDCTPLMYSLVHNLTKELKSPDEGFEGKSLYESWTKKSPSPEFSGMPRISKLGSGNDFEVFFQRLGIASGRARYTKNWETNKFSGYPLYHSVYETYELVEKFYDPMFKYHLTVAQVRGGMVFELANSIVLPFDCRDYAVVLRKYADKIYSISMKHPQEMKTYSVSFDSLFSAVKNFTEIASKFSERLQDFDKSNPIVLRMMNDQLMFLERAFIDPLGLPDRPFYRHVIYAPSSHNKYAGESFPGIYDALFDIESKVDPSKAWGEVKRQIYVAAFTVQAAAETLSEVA", "experiment": "Affinity assay by Surface Plasmon Resonance (SPR)", "details": "binding to PSMA protein", "description": "The binding capacity of HYNIC-PSMA-XL-2 and HYNIC-PSMA-XL-3 to PSMA protein was determined by Surface Plasmon Resonance (SPR)."}, "[2]": {"system": "biochemical recurrent prostate cancer", "experiment": "Comparison of SPECT/CT and PET/CT in 10 patients with biochemical recurrent prostate cancer", "assay_type": "in vivo, human", "details": "for patients found to have local recurrence in the prostatic fossa / positive rate of imaging: 5 patients per group; for positive rate of imaging: preliminary statistics; for Number of tumors / With or without local recurrence: per patient (No. 1-10), biochemical recurrence after radical prostatectomy", "description": "10 patients with biochemical recurrent prostate cancer were randomly divided into two groups. The basic clinical information of the two groups was similar: they both have previously received radical prostatectomy, and the current PSA of them were 1-3 ng/ml, and the GS score of them were 8-9. One group underwent ^68Ga-PSMA11 PET/CT, and the other group underwent ^99mTc-PSMA-XL SPECT/CT."}, "[3]": {"system": "prostate tumors versus bladder", "experiment": "Comparative imaging study with existing PSMA imaging agents in 15 prostate cancer patients", "assay_type": "in vivo, human", "details": "3 groups, SPECT/CT or PET/CT (FIG. 19)", "source_text": "15 patients with prostate cancer were randomly divided into 3 groups. One group underwent ^99mTc-HYNIC-ALUG SPECT/CT, one group underwent ^68Ga-PSMA11 PET/CT, and one group underwent ^99mTc-HYNIC-PSMA-XL3 SPECT/CT."}, "[4]": {"system": "Human prostate cancer LNCaP cells (PSMA positive)", "experiment": "LNCaP cell uptake experiment", "assay_type": "cell-based", "details": "for specific binding to PSMA-positive LNCaP cells: conclusion from the uptake and blocking experiment", "description": "Human prostate cancer LNCaP cells (PSMA positive) were cultured in a RPMI 1640 medium containing 10% fetal bovine serum and 1% penicillin-streptomycin double antibody under 37° C. with 5% CO2 and saturated humidity in the incubator. When the cells reach log phase, they were digested with 0.25% trypsin, then the cells were collected and washed twice with PBS, after that a cell suspension was obtained for further culture. A fixed number of cell lines (1.0×10^6 cells/1 ml) was placed in each well of a 24-well cell culture dish, and the experiment was performed after the logarithmic growth phase.\nThe cells were divided into an experimental group and a blocking group. […] 6 groups of experiments were carried out in parallel. After 1 h, the culture medium was aspirated, placed in a γ-counting tube, and then washed three times with PBS. The washing solution and the culture medium were combined for storage. Then the cells were trypsinized, collected in another counting tube, and the percentage of cell uptake was calculated by a γ-counting tube."}, "[5]": {"system": "prostate cancer tumors (PSMA expression)", "experiment": "SPECT/CT imaging of 10 patients with prostate cancer, with immunohistochemistry of surgical specimens", "assay_type": "in vivo, human", "description": "The patients were injected with about 740MBq of ^99mTc-HYNIC-PSMA-XL-3, and 2 hours later, they were examined by a Discovery 670 (GE, USA) scanner. Taking the right obturator internus muscle as the background, the target-to-background ratio (TBR) was calculated, and the results were shown in FIG. 15. […] Four of the five patients with primary prostate cancer underwent radical prostatectomy, and one of the three patients with biochemical recurrence prostate cancer underwent salvage lymph node dissection. Without knowing the results of ^99mTc-HYNIC-PSMA-XL-3 SPECT/CT, pathology specialists performed pathological analysis of samples. Representative sections were stained by immunohistochemistry method, deparaffinized in xylene and rehydrated in graded ethanol series. Antigen retrieval was performed with the aid of autoclave and retrieval buffer (Target Retrieval Solution, Dako). Mouse monoclonal antibody against PSMA (clone 3E6, Dako) was diluted at a 1:100 dilution and incubated overnight at 4° C., followed by immunodetection using the Histostain-Plus Detection Kit (Invitrogen). Stained sections were scanned using Nanozoomer 2.0-[…] (Hamamatsu Photonics) to generate digital overall images."}, "[6]": {"details": "upper bound calculated from ka, as kd was beyond the detection limit, read-out: KD value (SPR method)"}},
  "note": "“And” between values parts separate entries of the source, which are not always exact repeats. Identical values can stand only once. “Also recorded” adds a separate entry of the source. Like-named read-outs stand apart in the source and are kept apart here.",
  "data": [
    {"smiles": "NNc1ccc(C(=O)NC(CCC(=O)O)C(=O)NC(CCC(=O)O)C(=O)NCc2ccc(C(=O)NC(Cc3ccc4ccccc4c3)C(=O)NCCCCC(NC(=O)NC(CCC(=O)O)C(=O)O)C(=O)O)cc2)cn1", "note": "(stereo not drawn) [HYNIC-PSMA-XL-2, Glu-Urea-Lys-2Nal-AMB-Glu-Glu-HYNIC]", "values": [
      {"measurement": "Kd", "setting": "[1]; [6]", "result": "< 0.00643", "unit": "nM"}
    ]},
    {"smiles": "NNc1ccc(C(=O)NC(CCC(=O)O)C(=O)NCc2ccc(C(=O)NC(Cc3ccc4ccccc4c3)C(=O)NCCCCC(NC(=O)NC(CCC(=O)O)C(=O)O)C(=O)O)cc2)cn1", "note": "(stereo not drawn) [HYNIC-PSMA-XL-3, Glu-Urea-Lys-2Nal-AMB-Glu-HYNIC]", "values": [
      {"measurement": "Kd", "setting": "[1]; [6]", "result": "< 0.00486", "unit": "nM"}
    ]},
    {"smiles": "O=C(O)CCc1ccc(O)c(CN(CCN(CC(=O)O)Cc2cc(CCC(=O)NCCCCCC(=O)NCCCC[C@H](NC(=O)N[C@@H](CCC(=O)O)C(=O)O)C(=O)O)ccc2O)CC(=O)O)c1", "note": "[PSMA11, reference compound]", "values": [
      {"measurement": "Kd", "setting": "[1]; reference PSMA inhibitors, same method", "result": 1.25, "unit": "nM"}
    ]},
    {"smiles": "O=C([O-])CN(CCN(CC(=O)[O-])Cc1cc(CCC(=O)NCCCCCC(=O)NCCCC[C@H](NC(=O)N[C@@H](CCC(=O)O)C(=O)O)C(=O)O)ccc1[O-])Cc1cc(CCC(=O)O)ccc1[O-].[68Ga+3].[OH3+]", "note": "[^68Ga-PSMA11, reference compound]", "values": [
      {"measurement": "patients found to have local recurrence in the prostatic fossa", "setting": "[2]", "result": 1},
      {"measurement": "positive rate of imaging", "setting": "[2]", "result": 80, "unit": "%"},
      {"measurement": "Number of tumors", "setting": "[2]", "result": "1 (2×) and 4 and 0 and 2"},
      {"measurement": "With or without local recurrence", "setting": "[2]", "result": "no (4×) and yes"},
      {"measurement": "distribution of radioactivity in the bladder", "setting": "[3]", "result": "higher radiophysiological distribution; also recorded: high physiological distributions in the bladder"}
    ]},
    {"smiles": "O=C(O)CCC(NC(=O)NC(CCCCNC(=O)C(Cc1ccc2ccccc2c1)NC(=O)c1ccc(CNC(=O)C(CCC(=O)O)NC(=O)C(CCC(=O)O)NC(=O)c2ccc(N[N]=[99Tc]345([Cl])[O]C(=O)C[N]3CC[N]4CC(=O)[O]5)nc2)cc1)C(=O)O)C(=O)O", "note": "(stereo not drawn) [^99mTc-HYNIC/EDDA-PSMA-XL-2]", "values": [
      {"measurement": "specific binding to PSMA-positive LNCaP cells", "setting": "[4]", "result": "highly specifically bind"}
    ]},
    {"smiles": "O=C(O)CCC(NC(=O)NC(CCCCNC(=O)C(Cc1ccc2ccccc2c1)NC(=O)c1ccc(CNC(=O)C(CCC(=O)O)NC(=O)c2ccc(N[N]=[99Tc]3([Cl])[O]C(=O)CNCCNCC(=O)[O]3)nc2)cc1)C(=O)O)C(=O)O", "note": "(stereo not drawn) [^99mTc-HYNIC/EDDA-PSMA-XL-3]", "values": [
      {"measurement": "patients found to have local recurrence in the prostatic fossa", "setting": "[2]", "result": 1},
      {"measurement": "positive rate of imaging", "setting": "[2]", "result": 80, "unit": "%"},
      {"measurement": "Number of tumors", "setting": "[2]; listed as 99mTc-PSMA-XL", "result": "3 and 1 and 2 and 0 and 4"},
      {"measurement": "With or without local recurrence", "setting": "[2]; listed as 99mTc-PSMA-XL", "result": "yes and no (4×)"},
      {"measurement": "percentage of cell uptake, Experimental group", "setting": "[4]; LNCaP cells, 0.5 μCi per well, 1 h", "result": "14.01 ± 1.11", "unit": "%"},
      {"measurement": "percentage of cell uptake, Blocking group", "setting": "[4]; LNCaP cells, 1 h, excess 2-PMPA (1000-fold molar equivalent) added half an hour in advance", "result": "2.66 ± 0.51", "unit": "%"}
    ]},
    {"smiles": "O=C(O)CCC(NC(=O)NC(CCCCNC(=O)C(Cc1ccc2ccccc2c1)NC(=O)c1ccc(CNC(=O)C(CCC(=O)O)NC(=O)c2ccc(N[N]=[99Tc]345([Cl])[O]C(=O)C[N]3CC[N]4CC(=O)[O]5)nc2)cc1)C(=O)O)C(=O)O", "note": "(stereo not drawn) [^99mTc-HYNIC/EDDA-PSMA-XL-3]", "values": [
      {"measurement": "distribution of radioactivity in the bladder", "setting": "[3]; listed as 99mTc-HYNIC-PSMA-XL3", "result": "very low distribution of radioactivity"},
      {"measurement": "distribution of radioactivity in the bladder", "setting": "[3]; listed as 99mTc-HYNIC-PSMA-XL-3", "result": "less distribution of radioactivity in the bladder"},
      {"measurement": "specific binding to PSMA-positive LNCaP cells", "setting": "[4]", "result": "highly specifically bind"},
      {"measurement": "consistency of SPECT/CT tumor uptake with immunohistochemical PSMA expression of surgical specimens", "setting": "[5]; patients who underwent surgery, listed as 99mTc-HYNIC-PSMA-XL-3", "result": "highly consistent"},
      {"measurement": "distribution of radioactivity in the bladder", "setting": "[5]; patients, about 740 MBq, SPECT/CT 2 hours after injection, compared with tumor uptake", "result": "low"},
      {"measurement": "tumor targeting", "setting": "[5]; patients, about 740 MBq, SPECT/CT 2 hours after injection, metastases such as lymph nodes/bone", "result": "high"}
    ]}
  ]
}
